Measurements taken from PubChem BioAssay AID2060619 (Molecular Pharmacology Branch, DTP, NCI, 2025).

Test system: 323965-272-R-J2-PDC complex spheroid viability
Test: Anticancer human tumor 323965-272-R-J2-PDC patient-derived pancreatic carcinoma cell line growth inhibition [CLK]
Details: for IC50: curve of first compound; for viability, T/C: stronger effect = lower value
Procedure, shortened: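 Multi-cell-type spheroids combined patient-derived tumor cells with HUVEC endothelial cells and human mesenchymal stem cells. Paired agents were dosed in half-log steps down from about clinical Cmax, or from 10 microM where Cmax was unknown.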

[1] = second compound 0.0316 µM, first compound 0.00316 µM
[2] = second compound 0.0316 µM, first compound 0.01 µM
[3] = second compound 0.0316 µM, first compound 0.0316 µM
[4] = second compound 0.0316 µM, first compound 0.1 µM
[5] = second compound 0.0316 µM, first compound 0.316 µM
[6] = second compound 0.0316 µM, first compound 1 µM
[7] = second compound 0.1 µM, first compound 0.00316 µM
[8] = second compound 0.1 µM, first compound 0.01 µM
[9] = second compound 0.1 µM, first compound 0.0316 µM
[10] = second compound 0.1 µM, first compound 0.1 µM
[11] = second compound 0.1 µM, first compound 0.316 µM
[12] = second compound 0.1 µM, first compound 1 µM
[13] = second compound 0.316 µM, first compound 0.00316 µM
[14] = second compound 0.316 µM, first compound 0.01 µM
[15] = second compound 0.316 µM, first compound 0.0316 µM
[16] = second compound 0.316 µM, first compound 0.1 µM
[17] = second compound 0.316 µM, first compound 0.316 µM
[18] = second compound 0.316 µM, first compound 1 µM
[19] = second compound 1 µM, first compound 0.00316 µM
[20] = second compound 1 µM, first compound 0.01 µM
[21] = second compound 1 µM, first compound 0.0316 µM
[22] = second compound 1 µM, first compound 0.1 µM
[23] = second compound 1 µM, first compound 0.316 µM
[24] = second compound 1 µM, first compound 1 µM
[25] = second compound 3.16 µM, first compound 0.00316 µM
[26] = second compound 3.16 µM, first compound 0.01 µM
[27] = second compound 3.16 µM, first compound 0.0316 µM
[28] = second compound 3.16 µM, first compound 0.1 µM
[29] = second compound 3.16 µM, first compound 0.316 µM
[30] = second compound 3.16 µM, first compound 1 µM
[31] = second compound 10 µM, first compound 0.00316 µM
[32] = second compound 10 µM, first compound 0.01 µM
[33] = second compound 10 µM, first compound 0.0316 µM
[34] = second compound 10 µM, first compound 0.1 µM
[35] = second compound 10 µM, first compound 0.316 µM
[36] = second compound 10 µM, first compound 1 µM
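Also: spheroids exposed to agents for seven days before readout.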
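For viability, T/C in this document: percent of DMSO vehicle control wells so 100% = untreated growth.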

CCN1CCN(Cc2ccc(Nc3ncc(F)c(-c4cc(F)c5nc(C)n(C(C)C)c5c4)n3)nc2)CC1 + CN1CCN(c2cc(C(=O)Nc3cc4cc(-c5cnn(C)c5)ccc4cn3)ccn2)CC1
IC50 (second compound 0.0316 µM): > 1000 nM
IC50 (second compound 0.1 µM): > 1000 nM
IC50 (second compound 0.316 µM): < 3.16 nM
IC50 (second compound 1 µM): < 3.16 nM
IC50 (second compound 3.16 µM): < 3.16 nM
IC50 (second compound 10 µM): < 3.16 nM
viability, T/C [1]: 93.6%
viability, T/C [2]: 96.1%
viability, T/C [3]: 78.2%
viability, T/C [4]: 73.1%
viability, T/C [5]: 65.2%
viability, T/C [6]: 76.1%
viability, T/C [7]: 68.6%
viability, T/C [8]: 67.8%
viability, T/C [9]: 62.6%
viability, T/C [10]: 60.2%
viability, T/C [11]: 59.7%
viability, T/C [12]: 58.9%
viability, T/C [13]: 23.3%
viability, T/C [14]: 24.5%
viability, T/C [15]: 25.5%
viability, T/C [16]: 27.9%
viability, T/C [17]: 29.6%
viability, T/C [18]: 39.9%
viability, T/C [19]: 3.56%
viability, T/C [20]: 3.73%
viability, T/C [21]: 3.71%
viability, T/C [22]: 3.79%
viability, T/C [23]: 7.89%
viability, T/C [24]: 9.9%
viability, T/C [25]: 3.02%
viability, T/C [26]: 5.31%
viability, T/C [27]: 3.88%
viability, T/C [28]: 3.9%
viability, T/C [29]: 4.69%
viability, T/C [30]: 6.79%
viability, T/C [31]: 3.83%
viability, T/C [32]: 4.01%
viability, T/C [33]: 4.24%
viability, T/C [34]: 3.37%
viability, T/C [35]: 4.88%
viability, T/C [36]: 5.11%

COc1c(OCCCN2CCOCC2)ccc2c3n(c(=NC(=O)c4cnc(N)nc4)nc12)CCN3 + CN1CCN(c2cc(C(=O)Nc3cc4cc(-c5cnn(C)c5)ccc4cn3)ccn2)CC1
IC50 (second compound 0.0316 µM): 40.1 nM
IC50 (second compound 0.1 µM): 18.7 nM
IC50 (second compound 0.316 µM): < 3.16 nM
IC50 (second compound 1 µM): < 3.16 nM
IC50 (second compound 3.16 µM): < 3.16 nM
IC50 (second compound 10 µM): < 3.16 nM
viability, T/C [1]: 85.5%
viability, T/C [2]: 77.1%
viability, T/C [3]: 50%
viability, T/C [4]: 39.6%
viability, T/C [5]: 28.8%
viability, T/C [6]: 25.9%
viability, T/C [7]: 64.5%
viability, T/C [8]: 63%
viability, T/C [9]: 39.3%
viability, T/C [10]: 26%
viability, T/C [11]: 21.4%
viability, T/C [12]: 19.3%
viability, T/C [13]: 23.6%
viability, T/C [14]: 21.5%
viability, T/C [15]: 15.9%
viability, T/C [16]: 15.7%
viability, T/C [17]: 12.2%
viability, T/C [18]: 11.9%
viability, T/C [19]: 3.49%
viability, T/C [20]: 2.87%
viability, T/C [21]: 2.38%
viability, T/C [22]: 2.22%
viability, T/C [23]: 1.51%
viability, T/C [24]: 0.92%
viability, T/C [25]: 3.25%
viability, T/C [26]: 4.48%
viability, T/C [27]: 3.03%
viability, T/C [28]: 1.39%
viability, T/C [29]: 1.26%
viability, T/C [30]: 0.84%
viability, T/C [31]: 4.13%
viability, T/C [32]: 3.87%
viability, T/C [33]: 3.7%
viability, T/C [34]: 2.13%
viability, T/C [35]: 1.69%
viability, T/C [36]: 2.03%
